Measured values published in patent publication US10174011B2, “Heterocyclic compounds, process for preparation of the same and use thereof” (SHANGHAI INSTITUTE OF MATERIA MEDICA, CHINESE ACADEMY OF …, priority 2014, dated 2019).
Where two headings read alike, the source gives them in different places.

Columns and labels:
[1] = tested on: PCP-induced hyperactivity in mice; assay: In vivo efficacy test (PCP-induced high locomotor activity in mice); settings: male ICR mice, oral administration 45 minutes before PCP 7 mg/kg i.p.; dose significantly reducing PCP-induced hyperactivity vs model group
Description: 5) In Vivo Efficacy Test (PCP-Induced High Locomotor Activity in Mice)
PCP solution was prepared in a suitable concentration for 7 mg/kg dosage with saline. […] Male ICR mice (18-22 g) were used as test animals. All the test mice were randomly divided into vehicle control group, model control group, positive control group, and treatment group(8 mice per group). Mice of each group were orally administered test compounds or vehicle. After 45 minutes PCP solution was administered (7 mg/kg) through intraperitoneal injection. The mice track after drug or saline administration was recorded and analyzed by the spontaneous, open-field video analysis system. […] The mice track was recorded and analyzed by the spontaneous, open-field video analysis system. The total distance in each group was calculate and expressed as mean+SD and statistical evaluation was performed by one way ANOVA.

[2] = target: human recombinant 5-HT2A receptor (Homo sapiens (Human), UniProt P28223); assay: 5-HT2A receptor antagonism activity test (FLIPR Calcium 5 Assay Kit); settings: read-out: 5-HT2A receptor antagonism (IC50, mol/L)
human recombinant 5-HT2A receptor, sequence (P28223 whole entry): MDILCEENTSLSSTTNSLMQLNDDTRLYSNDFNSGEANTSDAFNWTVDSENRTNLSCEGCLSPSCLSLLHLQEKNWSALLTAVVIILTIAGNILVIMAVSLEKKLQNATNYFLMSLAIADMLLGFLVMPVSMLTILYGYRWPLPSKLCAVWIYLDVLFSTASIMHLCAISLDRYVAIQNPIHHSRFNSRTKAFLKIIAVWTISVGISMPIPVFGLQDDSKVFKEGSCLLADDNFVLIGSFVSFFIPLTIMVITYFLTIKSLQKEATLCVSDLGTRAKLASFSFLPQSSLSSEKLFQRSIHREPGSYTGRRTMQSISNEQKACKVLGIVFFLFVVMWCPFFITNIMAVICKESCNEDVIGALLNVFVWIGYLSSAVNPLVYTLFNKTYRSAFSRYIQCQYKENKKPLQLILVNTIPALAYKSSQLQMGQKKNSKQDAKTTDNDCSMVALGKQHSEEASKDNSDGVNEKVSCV

[3] = target: human recombinant 5-HT1A receptor (Homo sapiens (Human), UniProt P08908); assay: 5-HT1A receptor agonism activity test (inhibition of cAMP production, LANCE cAMP 384 Kit); format: cell-based; settings: HEK293 cells expressing human recombinant 5-HT1A receptor; test concentration 0.1 nM-10000 nM; read-out: 5-HT1A receptor agonism (EC50, mol/L)
human recombinant 5-HT1A receptor, sequence (P08908 whole entry): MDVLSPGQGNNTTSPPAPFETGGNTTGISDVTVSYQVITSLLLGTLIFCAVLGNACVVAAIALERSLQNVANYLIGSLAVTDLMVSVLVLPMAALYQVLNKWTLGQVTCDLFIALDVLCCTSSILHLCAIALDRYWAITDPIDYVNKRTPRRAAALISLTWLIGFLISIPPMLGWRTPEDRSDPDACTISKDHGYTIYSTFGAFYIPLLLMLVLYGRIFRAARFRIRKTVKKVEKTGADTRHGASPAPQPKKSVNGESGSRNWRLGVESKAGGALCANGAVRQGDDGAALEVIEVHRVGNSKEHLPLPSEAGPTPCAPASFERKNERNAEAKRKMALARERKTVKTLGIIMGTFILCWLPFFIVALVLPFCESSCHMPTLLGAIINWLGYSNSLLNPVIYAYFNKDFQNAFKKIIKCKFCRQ
From the text: Pharmacological Test 1) 5-HT1A Receptor Agonism Activity Test

[4] = target: human recombinant D2 receptor (Homo sapiens (Human), UniProt P14416); assay: D2 receptor antagonism activity test (inhibition of dopamine-induced decrease of cAMP production, LANCE cAMP 384 Kit); settings: read-out: D2 receptor antagonism (IC50, mol/L), HEK293 cells expressing human recombinant D2 receptor, 0.1 nM-10000 nM
human recombinant D2 receptor, sequence (P14416 whole entry): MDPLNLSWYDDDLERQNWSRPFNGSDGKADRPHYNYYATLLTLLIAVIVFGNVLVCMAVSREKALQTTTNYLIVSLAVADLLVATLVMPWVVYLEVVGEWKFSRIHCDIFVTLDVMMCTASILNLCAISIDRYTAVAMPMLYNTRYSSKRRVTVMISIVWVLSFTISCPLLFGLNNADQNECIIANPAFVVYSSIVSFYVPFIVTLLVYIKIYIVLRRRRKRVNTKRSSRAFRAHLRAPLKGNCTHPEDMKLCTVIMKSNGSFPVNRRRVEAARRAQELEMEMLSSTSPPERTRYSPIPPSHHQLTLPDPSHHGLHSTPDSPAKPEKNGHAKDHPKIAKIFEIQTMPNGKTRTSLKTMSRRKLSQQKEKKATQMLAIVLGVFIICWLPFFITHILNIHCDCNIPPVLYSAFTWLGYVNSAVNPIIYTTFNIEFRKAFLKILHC

[5] = CHO-K1 cells expressing human recombinant 5-HT2A receptor, α-methyl-5-hydroxytryptamine 300 nM, 0.1 nM-10000 nM

Row | SMILES | Effective dose [1] [mg/kg] | IC50 [2] [nM] | EC50 [3] [nM] | IC50 [4] [nM] | IC50 [2, 5] [nM]
1 | Cl.O=C1CCc2cc(CCN3CCN(c4cccc5sccc45)CC3)ccc2N1 [Compound of example 47, 6-(2-(4-(benzo[b]thiophen-4-yl)piperazin-1-yl)ethyl)-3,4-dihydroquinolin-2(1H)-one hydrochloride] | 0.3 |  |  |  | 
2 | O=c1[nH]c2ccc(CCN3CCN(c4cccc5sccc45)CC3)cc2[nH]1 [Compound of example 27, 5-(2-(4-(benzo[b]thiophen-4-yl)piperazin-1-yl)ethyl)-1H-benzo[d]imidazol-2(3H)-one] | 0.3 |  |  |  | 
3 | CC(=O)N1CC(CCN2CCN(c3cccc4sccc34)CC2)c2ccccc21.Cl (stereo not shown) [Compound of example 124, 1-(3-(2-(4-(benzo[b]thiophen-4-yl)piperazin-1-yl)ethyl)indolin-1-yl)ethanone hydrochloride] | 3 |  |  |  | 
4 | c1cc(N2CCN(CCc3ccc4ncsc4c3)CC2)c2ccsc2c1 [Compound of example 59, 6-(2-(4-(benzo[b]thiophen-4-yl)piperazin-1-yl)ethyl)benzo[d]thiazole] | 0.3 |  |  |  | 
5 | Cl.O=C1CCCc2cc(CCN3CCN(c4cccc5sccc45)CC3)ccc2N1 [Compound of example 49, 7-(2-(4-(benzo[b]thiophen-4-yl)piperazin-1-yl)ethyl)-4,5-dihydro-1H-benzo[b]azepin-2(3H)-one hydrochloride] | 1 |  |  |  | 
6 | O=C1CCc2ccc(OCCCCN3CCN(c4cccc(Cl)c4Cl)CC3)cc2N1 [aripiprazole, reference compound] | 3 |  |  |  | 
7 | CN1C(=O)CCc2ccc(CCN3CCN(c4cccc5sccc45)CC3)cc21 [Compound of example 115, 7-(2-(4-(benzo[b]thiophen-4-yl)piperazin-1-yl)ethyl)-1-methyl-3,4-dihydroquinolin-2(1H)-one] |  | 53.7 | 8.52 | 29.3 | 
8 | O=C1COc2ccc(CCN3CCC(c4cccc5sccc45)CC3)cc2N1 [Compound of example 97, 6-(2-(4-(benzo[b]thiophen-4-yl)piperidin-1-yl)ethyl)-2H-benzo[b][1,4]oxazin-3(4H)-one] |  |  | 0.223 | 6.81 | 173
9 | O=C1Cc2cc(CCN3CCN(c4cccc5sc(F)cc45)CC3)c(Cl)cc2N1 [Compound of example 113, 6-chloro-5-(2-(4-(2-fluorobenzo[b]thiophen-4-yl)piperazin-1-yl)ethyl)indolin-2-one] |  |  | 9.09 | 61 | 716
10 | CN1C(=O)COc2ccc(CCN3CCN(c4cccc5sccc45)CC3)cc21 [Compound of example 114, 6-(2-(4-(benzo[b]thiophen-4-yl)piperazin-1-yl)ethyl)-4-methyl-2H-benzo[b][1,4]oxazin-3(4H)-one] |  |  | 8.08 | 26.9 | 461
11 | O=c1ccc2ccc(CCCCCN3CCN(c4cc(F)cc5sccc45)CC3)cc2[nH]1 [Compound of example 71, 7-(5-(4-(6-fluorobenzo[b]thiophen-4-yl)piperazin-1-yl)pentyl)quinolin-2(1H)-one] | 3 |  |  |  | 
12 | O=c1ccc2ccc(CCN3CCN(c4cccc5c4CCS5)CC3)cc2[nH]1 [Compound of example 25, 7-(2-(4-(2,3-dihydrobenzo[b]thiophen-4-yl)piperazin-1-yl)ethyl)quinolin-2(1H)-one] |  | 77.9 | 0.824 | 85.1 | 
13 | O=C1Cc2cc(CCCCN3CCN(c4cccc5sc(F)cc45)CC3)ccc2N1 [Compound of example 101, 5-(4-(4-(2-fluorobenzo[b]thiophen-4-yl)piperazin-1-yl)butyl)indolin-2-one] |  |  | 16.8 | 1.84 | 759
14 | CC(=O)Nc1nc2cccc(CCN3CCN(c4cccc5sccc45)CC3)c2s1 [Compound of example 119, N-(7-(2-(4-(benzo[b]thiophen-4-yl)piperazin-1-yl)ethyl)benzo[d]thiazol-2-yl)acetamide] |  |  | 0.787 | 4.69 | 34.3
15 | c1ccc2c(CCN3CCN(c4cccc5sccc45)CC3)c[nH]c2c1 [Compound of example 46, 3-(2-(4-(benzo[b]thiophen-4-yl)piperazin-1-yl)ethyl)-1H-indole] | 1 |  |  |  | 
16 | O=C1Cc2cc(CCN3CCN(c4cncc5sccc45)CC3)c(Cl)cc2N1 [Compound of example 42, 6-chloro-5-(2-(4-(thieno[2,3-c]pyridin-4-yl)piperazin-1-yl)ethyl)indolin-2-one] |  |  | 100 | 270 | 115
17 | CC(=O)Nc1nc2ccc(CCN3CCN(c4cccc5sccc45)CC3)cc2s1 [Compound of example 153, N-(6-(2-(4-(benzo[b]thiophen-4-yl)piperazin-1-yl)ethyl)benzo[d]thiazol-2-yl)acetamide] |  |  | 2.35 | 3.8 | 18.9
18 | CN1Cc2cc(CCN3CCN(c4cccc5sccc45)CC3)ccc2NC1=O [Compound of example 51, 6-(2-(4-(benzo[b]thiophen-4-yl)piperazin-1-yl)ethyl)-3-methyl-3,4-dihydroquinazolin-2(1H)-one] | 1 |  |  |  | 
19 | O=C1CCc2cc(CCN3CCC(c4cccc5sccc45)CC3)ccc2N1 [Compound of example 98, 6-(2-(4-(benzo[b]thiophen-4-yl)piperidin-1-yl)ethyl)-3,4-dihydroquinolin-2(1H)-one] |  |  | 2.9 | 12.4 | 185
20 | O=C1CCc2cc(CCCCN3CCN(c4cccc5sccc45)CC3)ccc2N1 [Compound of example 111, 6-(4-(4-(benzo[b]thiophen-4-yl)piperazin-1-yl)butyl)-3,4-dihydroquinolin-2(1H)-one] |  |  | 29.5 | 23.9 | 400
21 | O=C1CCc2cc(Cl)c(CCN3CCN(c4cccc5sccc45)CC3)cc2N1 [Compound of example 23, 7-(2-(4-(benzo[b]thiophen-4-yl)piperazin-1-yl)ethyl)-6-chloro-3,4-dihydroquinolin-2(1H)-one] |  |  | 463 | 81.2 | 97.6
22 | Cc1nc2n(c(=O)c1CCN1CCN(c3cc(F)cc4sccc34)CC1)CCCC2 [Compound of example 90, 3-(2-(4-(6-fluorobenzo[b]thiophen-4-yl)piperazin-1-yl)ethyl)-2-methyl-6,7,8,9-tetrahydro-4H-pyrido[1,2-a]pyrimidin-4-one] |  |  | 27.7 | 10.4 | 13.6
23 | O=C1Cc2cc(CCN3CCN(c4cccc5sccc45)CC3)ccc2N1 [Compound of example 8, 5-(2-(4-(benzo[b]thiophen-4-yl)piperazin-1-yl)ethyl)indolin-2-one] | 0.1 to 0.3 |  |  |  | 
24 | c1ccc2[nH]c(CN3CCN(c4cccc5sccc45)CC3)nc2c1 [Compound of example 58, 2-((4-(benzo[b]thiophen-4-yl)piperazin-1-yl)methyl)-1H-benzo[d]imidazole] |  |  | 4.55 | 101 | 2170
25 | O=C1Cc2cc(CCN3CCN(c4cc(F)cc5sccc45)CC3)ccc2N1 [Compound of example 84, 5-(2-(4-(6-fluorobenzo[b]thiophen-4-yl)piperazin-1-yl)ethyl)indolin-2-one] |  |  | 0.235 | 10.9 | 17.5
26 | O=C1CCc2cc(CCCCN3CCC(c4cccc5sccc45)CC3)ccc2N1 [Compound of example 104, 6-(4-(4-(benzo[b]thiophen-4-yl)piperidin-1-yl)butyl)-3,4-dihydroquinolin-2(1H)-one] |  |  | 12.3 | 98.8 | 106
27 | O=C1Cc2cc(C(O)CN3CCN(c4cccc5sccc45)CC3)ccc2N1 (stereo not shown) [Compound of example 145, 5-(2-(4-(benzo[b]thiophen-4-yl)piperazin-1-yl)-1-hydroxyethyl)indolin-2-one] |  |  | 6.3 | 192 | 14.7
28 | CC(=O)n1cc(CCCCN2CCN(c3cccc4sccc34)CC2)c2cc(C#N)ccc21 [Compound of example 110, 1-acetyl-3-(4-(4-(benzo[b]thiophen-4-yl)piperazin-1-yl)butyl)-1H-indole-5-carbonitrile] |  |  | 84 | 57.6 | 1760
29 | Cn1c(=O)[nH]c2ccc(CCN3CCN(c4cccc5sccc45)CC3)cc21 [Compound of example 86, 6-(2-(4-(benzo[b]thiophen-4-yl)piperazin-1-yl)ethyl)-1-methyl-1H-benzo[d]imidazol-2(3H)-one] |  |  | 21.6 | 23.5 | 93.3
30 | O=C1Cc2cc(CCN3CCN(c4cccc5c4CCS5)CC3)c(Cl)cc2N1 [Compound of example 1, 6-chloro-5-(2-(4-(2,3-dihydrobenzo[b]thiophen-4-yl)piperazin-1-yl)ethyl)indolin-2-one] |  |  | 3.31 | 56.9 | 227
